In patent US20150352134A1, “COMPOSITION FOR TOPICAL SKIN APPLICATION CONTAINING GINSENOSIDE F2 DERIVED FROM HYDROPONIC GINSENG” (AMOREPACIFIC CORPORATION, priority 2012, published 2015):

Columns and labels:
Assay type in all cases: cell-based
Escherichia coli = test: Antibacterial effect, MIC; details: 48 hours, 32°
Method: (§1) The antibacterial testing is carried out in order to evaluate the antibacterial effect of ginsenoside F2. The detailed testing method is as follows. Staphylococcus aureus, Escherichia coli, and pseudomonas aeruginosa strains are cultured with a tryptic soy broth, and candida albicans and aspergillus niger strains are cultured with sabouraud dextrose broth. The test bacterial liquid is the 1/100 (1/10 for candida albicans strain) diluted solution of the culture medium diluted with each medium. For aspergillus niger, the test bacterial liquid is the spore suspension prepared to 2×10^8 cfu/ml. 0.15 ml of the test bacterial liquid is added to 15 ml of each culture medium to prepare a well-blended diluted solution. 16 μl of the sample is put into each well on the first row of a 96-well plate, and 184 μl of the diluted solution is added to each well on the first row. Then, 100 μl of the diluted solution is put into each of the other wells. The mixed solution of the first row is sufficiently stirred, and 100 μl of the mixed solution is added to each well on the second row of the 96-well plate and stirred sufficiently. 100 μl of the mixed solution on the second row is taken and added to each well on the third row to achieve two-fold serial dilution. Straphylococcus aureus, Escherichia coli, and Pseudomonas aeruginosa strains are cultured in a thermostat container at 32°, and Candida albicans and Aspergillus niger strains are cultured in a thermostat container at 25° C. 48 hours later, the cell proliferation is determined by the turbidity index and microscopic observation to determine the minimum inhibitory concentration (MIC).

Candida albicans = test: Antibacterial effect, MIC; details: 48 hours, 25° C.
Method: as §1

Pseudomonas aeruginosa = test: Antibacterial effect, MIC; details: 48 hours, 32°
Method: as §1

Aspergillus niger = test: Antibacterial effect, MIC; details: 48 hours, 25° C.
Method: as §1

5α-reductase = biological target: T1, 5α-reductase (Homo sapiens, UniProt P31213); test: 5α-reductase activity inhibition, conversion of [14C]testosterone to DHT in HEK293-5α R2 cells; details: 2 hours
T1 construct: 3×FLAG; expressed in transfected cells; host or cells: HEK293
T1 sequence (P31213 1-254): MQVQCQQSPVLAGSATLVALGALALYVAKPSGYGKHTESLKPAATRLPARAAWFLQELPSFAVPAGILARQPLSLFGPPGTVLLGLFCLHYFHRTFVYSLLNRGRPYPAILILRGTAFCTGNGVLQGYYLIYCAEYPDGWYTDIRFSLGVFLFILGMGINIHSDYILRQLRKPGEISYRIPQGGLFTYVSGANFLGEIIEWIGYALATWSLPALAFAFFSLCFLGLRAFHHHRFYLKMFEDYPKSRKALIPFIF
Method: In order to evaluate the inhibitory effect on the activity of 5α-reductase, the conversion rate from [^14C]testosterone to [^14C]dihydrotestosterone (DHT) in HEK293-5α R2 cells is measured. P3×FLAG-CMV-5α R2 is transduced into HEK293 cells, which are cultured in a 24-well plate at a rate of 2.5×10^5 cells per well (Park et al., 2003, JDS. Vol. 31, pp. 191-98). The next day, the used culture medium is replaced with a new culture medium containing an enzyme substrate and an inhibitor. The substrate of the culture medium is 0.05 μCi [^14C]testosterone (Amersham Pharmacia Biotech, UK).
To evaluate the degree of 5α-reductase activity inhibition, the cells are treated with ginsenoside F2 and then cultured in a 5% CO2 incubator at 37° C. for 2 hours. In this regard, the negative control is the group not treated with ginsenoside F2, while the positive control is the group treated with finasteride. Subsequently, the culture medium is collected to extract steroids with 800 μl of ethylacetate, and the supernatant organic solvent phase is isolated and dried. The residue is dissolved in 50 μl of ethylacetate and developed on silica plastic sheet kieselgel 60 F254 using an ethylacetate-hexane (1:1) solvent.
The plastic sheet is dried out in the air and measured in regards to the abundance of isotope using a bath system. The dry plastic sheet together with an X-ray film is put in a bath cassette. After one week, the abundance of isotope of testosterone and dihydrotestosterone remaining on the film is measured to calculate the conversion rate and the inhibition rate according to the following mathematical formulas 5 and 6, respectively.

interleukin-8 (IL-8) = test: IL-8 generation inhibition in normal human skin keratinocytes (ELISA); details: stimulation with PGSA / LPS, 24 hours
Method: One day before the testing, normal human skin keratinocytes (NHEK) purchased from Lonza are injected into a 96-well plate at a rate of 5×10^4 cells/well and cultured in an incubator under conditions of 5% CO2 and 37° C. for 24 hours. After 24 hours, the culture plate is washed with PBS twice, and the used culture medium is replaced with a serum-free keratinocyte basement medium. Ginsenoside F2 is injected into each well according to the concentration of Table 24 and allowed to react for 30 minutes. Then, the keratinocytes are treated separately with 10 μg/ml of PGSA, 50 μg/ml of PGSA, and a mixture of PGSA (50 μg/ml) and LPS (1 μg/ml). In this regard, PGSA (peptidoglycan from S. aureus) is stapylococcus-derived peptidoglycan that is a principal component of the cell membrane of gram-positive (+) bacteria, and the components of the cell membrane of bacteria are known to cause inflammation. Particularly, it is reported that about 90% of patients with atopic dermatitis are susceptible to secondary infection due to staphylococcus. LPS (lipopolysaccharide) is a principal component of the cell membrane of gram-negative (−) bacteria and reportedly a main cause of inflammation. After the keratinocytes are cultured in an incubator under conditions of 5% CO2 and 37° C. for 24 hours, the culture medium is collected and subjected to ELISA for interleukin-8 (IL-8). The ELISA is carried out according to the testing method as instructed by the manufacturer (BD Science).

**Q.** `CC(C)=CCC[C@](C)(O[C@@H]1O[C@H](CO)[C@@H](O)[C@H](O)[C@H]1O)[C@H]1CC[C@]2(C)[C@@H]1[C@H](O)C[C@@H]1[C@@]3(C)CC[C@H](O[C@@H]4O[C@H](CO)[C@@H](O)[C@H](O)[C@H]4O)C(C)(C)[C@@H]3CC[C@]12C` [Ginsenoside F2, ginsenoside F2] was tested. Which “MIC (%) Escherichia coli” value (Escherichia coli) did it give?
**A.** Its value is 0.13%.

**Q.** What about the “MIC (%) Candida albicans” value (Candida albicans) of the same compound?
**A.** Its value is greater than 4%.

**Q.** And the “MIC (%) Pseudomonas aeruginosa” value (Pseudomonas aeruginosa)?
**A.** Its value is 0.09%.

**Q.** And the “MIC (%) Aspergillus niger” value (Aspergillus niger)?
**A.** Its value is greater than 2%.

**Q.** And the “Inhibition rate (%)” value (5α-reductase; 5α-reductase activity)?
**A.** Its value is 59.7%.

**Q.** What about the “Conversion rate (%)” value (5α-reductase; testosterone to dihydrotestosterone) of the same compound?
**A.** The value was 15.4%.

**Q.** What about the “IL-8 secretion” value (interleukin-8 (IL-8); 5 ppm) of the same compound?
**A.** The value was 1209.66 pg/mL.

**Q.** And the “IL-8 secretion” value (interleukin-8 (IL-8); 25 ppm)?
**A.** Its value is 1118.80 pg/mL.

**Q.** What about the “IL-8 secretion” value (interleukin-8 (IL-8); 50 ppm) of the same compound?
**A.** The value was 1110.29 pg/mL.
